Source: patent US9809587B2, “Pesticidally active heterocyclic derivatives with sulphur containing substituents” (Syngenta Participations AG, priority 2014, dated 2017)

Experiments:
Type in all cases: in vivo
[1] = system: Bemisia tabaci (Cotton White Fly); assay: Bemisia tabaci (cotton white fly), sprayed cotton leaf discs; settings: foliar, 144 h, application rate of 200 ppm, adult white flies on cotton leaf discs, 6 days after incubation
Description: Example B1: Bemisia tabaci (Cotton White Fly)
Cotton leaf discs were placed on agar in 24-well microtiter plates and sprayed with aqueous test solutions prepared from 10′000 ppm DMSO stock solutions. After drying the leaf discs were infested with adult white flies. The samples were checked for mortality 6 days after incubation.

[2] = system: Diabrotica balteata (Corn Root Worm); assay: Diabrotica balteata (corn root worm), sprayed maize sprouts; settings: 96 h, application rate of 200 ppm, L2 larvae on maize sprouts, 4 days after infestation
Description: Example B2: Diabrotica balteata (Corn Root Worm)
Maize sprouts, placed on an agar layer in 24-well microtiter plates were treated with aqueous test solutions prepared from 10′000 ppm DMSO stock solutions by spraying. After drying, the plates were infested with L2 larvae (6 to 10 per well). The samples were assessed for mortality and growth inhibition in comparison to untreated samples 4 days after infestation.

[3] = system: Euschistus heros (Neotropical Brown Stink Bug); assay: Euschistus heros (neotropical brown stink bug), sprayed soybean leaf; settings: 120 h, application rate of 200 ppm, N-2 nymphs on soybean leaf, 5 days after infestation
Description: Example B3: Euschistus heros (Neotropical Brown Stink Bug)
Soybean leaf on agar in 24-well microtiter plates were sprayed with aqueous test solutions prepared from 10′000 ppm DMSO stock solutions. After drying the leaf were infested with N-2 nymphs. The samples were assessed for mortality in comparison to untreated samples 5 days after infestation.

[4] = system: Myzus persicae (Green Peach Aphid); assay: Myzus persicae (green peach aphid), sprayed sunflower leaf discs; settings: foliar, 144 h, application rate of 200 ppm, mixed ages on sunflower leaf discs, 6 days after infestation
Description: Example B4: Myzus persicae (Green Peach Aphid)
(§1) Sunflower leaf discs were placed on agar in a 24-well microtiter plate and sprayed with aqueous test solutions prepared from 10′000 ppm DMSO stock solutions. After drying, the leaf discs were infested with an aphid population of mixed ages. The samples were assessed for mortality 6 days after infestation.

[5] = system: Plutella xylostella (Diamond Back Moth); assay: Plutella xylostella (diamond back moth), treated artificial diet; settings: 120 h, application rate of 200 ppm, L2 larvae on artificial diet, 5 days after infestation, read-out: effect in at least one of the two categories (mortality or growth inhibition)
Outline: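 Artificial diet treated with aqueous dilutions of DMSO stocks (10′000 ppm stock), dried, then infested with 10-15 L2 larvae per well. Mortality and growth inhibition assessed versus untreated controls 5 days after infestation.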

[6] = system: Spodoptera littoralis (Egyqptian Cotton Leaf Worm); assay: Spodoptera littoralis (Egyptian cotton leaf worm), sprayed cotton leaf discs; settings: foliar, 72 h, application rate of 200 ppm, L1 larvae on cotton leaf discs, 3 days after infestation
Outline: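 Cotton leaf discs on agar were sprayed with aqueous dilutions made from 10′000 ppm DMSO stocks, then infested after drying with five L1 larvae. Mortality, anti-feedant effect and growth inhibition were scored against untreated discs 3 days after infestation. Control means at least one of these exceeds the untreated sample.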

[7] = system: Spodoptera littoralis (Egyqptian Cotton Leaf Worm); assay: Spodoptera littoralis (Egyptian cotton leaf worm), compound in agar taken up by lettuce roots; settings: 144 h, test rate of 12.5 ppm, uptake by lettuce roots from agar, 6 days after infestation, read-out: effect in at least one of the three categories (mortality, anti-feedancy, or growth inhibition)
Outline: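 Compound mixed into agar from a 10′000 ppm DMSO stock and taken up over 7 days by lettuce roots; cut leaves then infested with Spodoptera eggs. Mortality, anti-feedant effect and growth inhibition scored against untreated samples 6 days after infestation.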

[8] = system: Tetranychus urticae (Two-Spotted Spider Mite); assay: Tetranychus urticae (two-spotted spider mite), sprayed bean leaf discs; settings: foliar, 192 h, application rate of 200 ppm, mixed population (mobile stages) on bean leaf discs, 8 days after infestation
Description: Example B9: Tetranychus urticae (Two-Spotted Spider Mite)
Bean leaf discs on agar in 24-well microtiter plates were sprayed with aqueous test solutions prepared from 10′000 ppm DMSO stock solutions. After drying the leaf discs were infested with a mite population of mixed ages. The samples were assessed for mortality on mixed population (mobile stages) 8 days after infestation.

[9] = system: Thrips tabaci (Onion Thrips); assay: Thrips tabaci (onion thrips), sprayed sunflower leaf discs; settings: foliar, 144 h, application rate of 200 ppm, mixed ages on sunflower leaf discs, 6 days after infestation
Description: Example B10: Thrips tabaci (Onion Thrips)
as §1, with “in” for “in a”, “plates” for “plate”, “drying” for “drying,”, “a thrips” for “an aphid”

[10] = system: Frankliniella occidentalis (Western Flower Thrips); assay: Frankliniella occidentalis (western flower thrips), sprayed sunflower leaf discs; settings: foliar, 168 h, application rate of 200 ppm, mixed ages on sunflower leaf discs, 7 days after infestation
Description: Example B11: Frankliniella occidentalis (Western Flower Thrips)
as §1, with “in” for “in a”, “plates” for “plate”, “[…]” for “10′000 ppm”, “drying” for “drying,”, “a Frankliniella” for “an aphid”, “7” for “6”

[11] = system: Aedes aegypti (Yellow Fever Mosquito); assay: Activity against Aedes aegypti (yellow fever mosquito), dried deposits in tissue culture plates; settings: application rate of 200 ppm in ethanol, adult females, after 48 h
Description: Example B12: Activity Against Aedes aegypti (Yellow Fever Mosquito)
Test solutions, at an application rate of 200 ppm in ethanol, were applied to 12-well tissue culture plates. Once the deposits were dry, five, two to five days old adult female Aedes aegypti were added to each well, and sustained with a 10% sucrose solution in a cotton wool plug. Assessment of knockdown was made one hour after introduction, and mortality was assessed at 24 and 48 hours after introduction.
The following compounds gave at least 80% control of Aedes aegypti after 48 h: […]

[12] = system: Myzus persicae (Green Peach Aphid); assay: Myzus persicae (green peach aphid), roots of pea seedlings in test solution; settings: 144 h, test rate of 24 ppm, roots of infested pea seedlings in test solution, 6 days
Description: Example B5: Myzus persicae (Green Peach Aphid)
Roots of pea seedlings infested with an aphid population of mixed ages were placed directly in the aqueous test solutions prepared from 10′000 DMSO stock solutions. The samples were assessed for mortality 6 days after placing seedlings in test solutions.

CCS(=O)(=O)c1cc(-c2cc(C(F)(F)F)ccn2)cnc1-c1nc2cc(C(F)(F)F)ncc2n1C [Compound P21]
≥ 80%: mortality at 200 ppm [1] | mortality at 200 ppm [2] | mortality at 200 ppm [3] | mortality at 200 ppm [4] | percent effect (mortality or growth inhibition) at 200 ppm [5] | percent control (mortality, anti-feedant effect or growth inhibition) at 200 ppm [6] | percent control (mortality, anti-feedancy or growth inhibition) at 12.5 ppm [7] | mortality at 200 ppm [8] | mortality at 200 ppm [9] | mortality at 200 ppm [10] | pest or weed control at 200 ppm [11]

CCS(=O)(=O)c1cc(-c2ncc(C(F)(F)F)cn2)cnc1-c1nc2cc(C(F)(F)F)ncc2n1C [Compound P25]
≥ 80%: mortality at 200 ppm [1] | mortality at 200 ppm [2] | mortality at 200 ppm [3] | mortality at 200 ppm [4] | percent effect (mortality or growth inhibition) at 200 ppm [5] | percent control (mortality, anti-feedant effect or growth inhibition) at 200 ppm [6] | percent control (mortality, anti-feedancy or growth inhibition) at 12.5 ppm [7] | mortality at 200 ppm [8] | mortality at 200 ppm [9] | mortality at 200 ppm [10] | pest or weed control at 200 ppm [11]

CCS(=O)(=O)c1cc(-c2ncccn2)cnc1-c1nc2cc(C(F)(F)F)ncc2n1C [Compound P27]
≥ 80%: mortality at 200 ppm [1] | mortality at 200 ppm [2] | mortality at 200 ppm [3] | mortality at 200 ppm [4] | mortality at 24 ppm [12] | percent effect (mortality or growth inhibition) at 200 ppm [5] | percent control (mortality, anti-feedant effect or growth inhibition) at 200 ppm [6] | percent control (mortality, anti-feedancy or growth inhibition) at 12.5 ppm [7] | mortality at 200 ppm [8] | mortality at 200 ppm [10]

CCS(=O)(=O)c1cc(-c2ncc(F)cc2F)cnc1-c1nc2cc(C(F)(F)F)ncc2n1C [Compound P35]
≥ 80%: mortality at 200 ppm [1] | mortality at 200 ppm [2] | mortality at 200 ppm [4] | mortality at 24 ppm [12] | percent effect (mortality or growth inhibition) at 200 ppm [5] | percent control (mortality, anti-feedant effect or growth inhibition) at 200 ppm [6] | percent control (mortality, anti-feedancy or growth inhibition) at 12.5 ppm [7] | mortality at 200 ppm [8] | mortality at 200 ppm [10]

CCS(=O)(=O)c1cc(-c2cccc(C#N)n2)cnc1-c1nc2cc(C(F)(F)F)ncc2n1C [Compound P64]
≥ 80%: mortality at 200 ppm [1] | mortality at 200 ppm [2] | mortality at 200 ppm [3] | mortality at 200 ppm [4] | percent effect (mortality or growth inhibition) at 200 ppm [5] | percent control (mortality, anti-feedant effect or growth inhibition) at 200 ppm [6] | percent control (mortality, anti-feedancy or growth inhibition) at 12.5 ppm [7] | mortality at 200 ppm [8]

CCS(=O)(=O)c1cc(-c2ccoc2)cnc1-c1nc2cc(C(F)(F)F)ncc2n1C [Compound P71]
≥ 80%: mortality at 200 ppm [2] | mortality at 200 ppm [3] | mortality at 200 ppm [4] | percent effect (mortality or growth inhibition) at 200 ppm [5] | percent control (mortality, anti-feedancy or growth inhibition) at 12.5 ppm [7] | mortality at 200 ppm [8]

CCS(=O)(=O)c1cc(-n2cnc(C(F)(F)F)n2)cnc1-c1nc2cc(C(F)(F)F)ncc2n1C [Compound P110]
≥ 80%: mortality at 200 ppm [2] | mortality at 200 ppm [3] | mortality at 200 ppm [4] | mortality at 24 ppm [12] | percent effect (mortality or growth inhibition) at 200 ppm [5] | percent control (mortality, anti-feedant effect or growth inhibition) at 200 ppm [6] | mortality at 200 ppm [8] | mortality at 200 ppm [9] | mortality at 200 ppm [10] | pest or weed control at 200 ppm [11]

CCS(=O)(=O)c1cc(-c2ncc(C#N)cn2)cnc1-c1nc2cc(C(F)(F)F)ncc2n1C [Compound P111]
≥ 80%: mortality at 200 ppm [1] | mortality at 200 ppm [2] | mortality at 200 ppm [3] | mortality at 200 ppm [4] | mortality at 24 ppm [12] | percent effect (mortality or growth inhibition) at 200 ppm [5] | percent control (mortality, anti-feedant effect or growth inhibition) at 200 ppm [6] | mortality at 200 ppm [9] | mortality at 200 ppm [10] | pest or weed control at 200 ppm [11]
